Source: the NIST ThermoML archive (doi:10.1016/j.jct.2015.01.004)
Several values for one entry are separate records, joined by “and”; a condition that tells them apart may be missing. Equal entries are not always repeated. ± gives the expanded uncertainty stated by the source.

Test: molar heat capacity at constant pressure; xn = mol fraction of the nth substance listed
Settings: 100 kPa

## [Si] [silicon] + [Li]
46.23 K, Crystal of intercomponent compound 2, relaxation calorimeter, x2 = 0.804
  molar heat capacity at constant pressure: 2.145 ± 0.087 J/K/mol and 2.142 ± 0.087 J/K/mol
48.69 K, Crystal of intercomponent compound 1, relaxation calorimetry, x2 = 0.81
  molar heat capacity at constant pressure: 2.259 ± 0.092 J/K/mol
48.7 K, Crystal of intercomponent compound 2, relaxation calorimeter, x2 = 0.804
  molar heat capacity at constant pressure: 2.429 ± 0.099 J/K/mol
48.72 K, Crystal of intercomponent compound 2, relaxation calorimeter, x2 = 0.804
  molar heat capacity at constant pressure: 2.429 ± 0.099 J/K/mol
50 K, Crystal of intercomponent compound 1, relaxation calorimetry + DSC, x2 = 0.81
  molar heat capacity at constant pressure: 2.41 ± 0.1 J/K/mol
50 K, Crystal of intercomponent compound 2, relaxation calorimetry + DSC, x2 = 0.804
  molar heat capacity at constant pressure: 2.61 ± 0.11 J/K/mol
51.29 K, Crystal of intercomponent compound 1, relaxation calorimetry, x2 = 0.81
  molar heat capacity at constant pressure: 2.56 ± 0.1 J/K/mol
51.3 K, Crystal of intercomponent compound 2, relaxation calorimeter, x2 = 0.804
  molar heat capacity at constant pressure: 2.74 ± 0.11 J/K/mol
54.03 K, Crystal of intercomponent compound 1, relaxation calorimetry, x2 = 0.81
  molar heat capacity at constant pressure: 2.89 ± 0.12 J/K/mol
54.03 K, Crystal of intercomponent compound 2, relaxation calorimeter, x2 = 0.804
  molar heat capacity at constant pressure: 3.08 ± 0.13 J/K/mol
54.04 K, Crystal of intercomponent compound 2, relaxation calorimeter, x2 = 0.804
  molar heat capacity at constant pressure: 3.08 ± 0.13 J/K/mol
56.91 K, Crystal of intercomponent compound 1, relaxation calorimetry, x2 = 0.81
  molar heat capacity at constant pressure: 3.26 ± 0.13 J/K/mol
56.92 K, Crystal of intercomponent compound 2, relaxation calorimeter, x2 = 0.804
  molar heat capacity at constant pressure: 3.45 ± 0.14 J/K/mol
59.95 K, Crystal of intercomponent compound 1, relaxation calorimetry, x2 = 0.81
  molar heat capacity at constant pressure: 3.65 ± 0.15 J/K/mol
59.96 K, Crystal of intercomponent compound 2, relaxation calorimeter, x2 = 0.804
  molar heat capacity at constant pressure: 3.84 ± 0.16 J/K/mol
60 K, Crystal of intercomponent compound 1, relaxation calorimetry + DSC, x2 = 0.81
  molar heat capacity at constant pressure: 3.63 ± 0.15 J/K/mol
60 K, Crystal of intercomponent compound 2, relaxation calorimetry + DSC, x2 = 0.804
  molar heat capacity at constant pressure: 3.81 ± 0.15 J/K/mol
63.15 K, Crystal of intercomponent compound 1, relaxation calorimetry, x2 = 0.81
  molar heat capacity at constant pressure: 4.08 ± 0.17 J/K/mol
63.17 K, Crystal of intercomponent compound 2, relaxation calorimeter, x2 = 0.804
  molar heat capacity at constant pressure: 4.27 ± 0.17 J/K/mol
63.18 K, Crystal of intercomponent compound 2, relaxation calorimeter, x2 = 0.804
  molar heat capacity at constant pressure: 4.27 ± 0.17 J/K/mol
66.53 K, Crystal of intercomponent compound 1, relaxation calorimetry, x2 = 0.81
  molar heat capacity at constant pressure: 4.52 ± 0.18 J/K/mol
66.54 K, Crystal of intercomponent compound 2, relaxation calorimeter, x2 = 0.804
  molar heat capacity at constant pressure: 4.72 ± 0.19 J/K/mol
66.55 K, Crystal of intercomponent compound 2, relaxation calorimeter, x2 = 0.804
  molar heat capacity at constant pressure: 4.73 ± 0.19 J/K/mol
70 K, Crystal of intercomponent compound 1, relaxation calorimetry + DSC, x2 = 0.81
  molar heat capacity at constant pressure: 5.02 ± 0.2 J/K/mol
70 K, Crystal of intercomponent compound 2, relaxation calorimetry + DSC, x2 = 0.804
  molar heat capacity at constant pressure: 5.21 ± 0.21 J/K/mol
70.08 K, Crystal of intercomponent compound 1, relaxation calorimetry, x2 = 0.81
  molar heat capacity at constant pressure: 5.02 ± 0.2 J/K/mol
70.1 K, Crystal of intercomponent compound 2, relaxation calorimeter, x2 = 0.804
  molar heat capacity at constant pressure: 5.22 ± 0.21 J/K/mol
70.11 K, Crystal of intercomponent compound 2, relaxation calorimeter, x2 = 0.804
  molar heat capacity at constant pressure: 5.22 ± 0.21 J/K/mol
73.83 K, Crystal of intercomponent compound 1, relaxation calorimetry, x2 = 0.81
  molar heat capacity at constant pressure: 5.54 ± 0.23 J/K/mol
73.84 K, Crystal of intercomponent compound 2, relaxation calorimeter, x2 = 0.804
  molar heat capacity at constant pressure: 5.75 ± 0.23 J/K/mol
73.86 K, Crystal of intercomponent compound 2, relaxation calorimeter, x2 = 0.804
  molar heat capacity at constant pressure: 5.75 ± 0.23 J/K/mol
77.77 K, Crystal of intercomponent compound 1, relaxation calorimetry, x2 = 0.81
  molar heat capacity at constant pressure: 6.09 ± 0.25 J/K/mol
77.78 K, Crystal of intercomponent compound 2, relaxation calorimeter, x2 = 0.804
  molar heat capacity at constant pressure: 6.31 ± 0.26 J/K/mol
77.8 K, Crystal of intercomponent compound 2, relaxation calorimeter, x2 = 0.804
  molar heat capacity at constant pressure: 6.32 ± 0.26 J/K/mol
80 K, Crystal of intercomponent compound 1, relaxation calorimetry + DSC, x2 = 0.81
  molar heat capacity at constant pressure: 6.43 ± 0.26 J/K/mol
80 K, Crystal of intercomponent compound 2, relaxation calorimetry + DSC, x2 = 0.804
  molar heat capacity at constant pressure: 6.65 ± 0.27 J/K/mol
81.93 K, Crystal of intercomponent compound 1, relaxation calorimetry, x2 = 0.81
  molar heat capacity at constant pressure: 6.66 ± 0.27 J/K/mol
81.94 K, Crystal of intercomponent compound 2, relaxation calorimeter, x2 = 0.804
  molar heat capacity at constant pressure: 6.9 ± 0.28 J/K/mol
81.95 K, Crystal of intercomponent compound 2, relaxation calorimeter, x2 = 0.804
  molar heat capacity at constant pressure: 6.9 ± 0.28 J/K/mol
86.31 K, Crystal of intercomponent compound 1, relaxation calorimetry, x2 = 0.81
  molar heat capacity at constant pressure: 7.27 ± 0.3 J/K/mol
86.32 K, Crystal of intercomponent compound 2, relaxation calorimeter, x2 = 0.804
  molar heat capacity at constant pressure: 7.53 ± 0.31 J/K/mol
86.33 K, Crystal of intercomponent compound 2, relaxation calorimeter, x2 = 0.804
  molar heat capacity at constant pressure: 7.53 ± 0.31 J/K/mol
90 K, Crystal of intercomponent compound 1, relaxation calorimetry + DSC, x2 = 0.81
  molar heat capacity at constant pressure: 7.82 ± 0.32 J/K/mol
90 K, Crystal of intercomponent compound 2, relaxation calorimetry + DSC, x2 = 0.804
  molar heat capacity at constant pressure: 8.08 ± 0.33 J/K/mol
90.93 K, Crystal of intercomponent compound 1, relaxation calorimetry, x2 = 0.81
  molar heat capacity at constant pressure: 7.89 ± 0.32 J/K/mol
90.93 K, Crystal of intercomponent compound 2, relaxation calorimeter, x2 = 0.804
  molar heat capacity at constant pressure: 8.14 ± 0.33 J/K/mol
90.95 K, Crystal of intercomponent compound 2, relaxation calorimeter, x2 = 0.804
  molar heat capacity at constant pressure: 8.17 ± 0.33 J/K/mol
91 K, Crystal of intercomponent compound 2, relaxation calorimeter, x2 = 0.804
  molar heat capacity at constant pressure: 8.16 ± 0.33 J/K/mol
91.01 K, Crystal of intercomponent compound 1, relaxation calorimetry, x2 = 0.81
  molar heat capacity at constant pressure: 7.88 ± 0.32 J/K/mol
91.02 K, Crystal of intercomponent compound 2, relaxation calorimeter, x2 = 0.804
  molar heat capacity at constant pressure: 8.18 ± 0.33 J/K/mol
95.01 K, Crystal of intercomponent compound 1, relaxation calorimetry, x2 = 0.81
  molar heat capacity at constant pressure: 8.41 ± 0.34 J/K/mol
95.02 K, Crystal of intercomponent compound 2, relaxation calorimeter, x2 = 0.804
  molar heat capacity at constant pressure: 8.71 ± 0.35 J/K/mol
95.04 K, Crystal of intercomponent compound 2, relaxation calorimeter, x2 = 0.804
  molar heat capacity at constant pressure: 8.73 ± 0.35 J/K/mol
99.06 K, Crystal of intercomponent compound 2, relaxation calorimeter, x2 = 0.804
  molar heat capacity at constant pressure: 9.29 ± 0.38 J/K/mol
99.07 K, Crystal of intercomponent compound 1, relaxation calorimetry, x2 = 0.81
  molar heat capacity at constant pressure: 8.94 ± 0.36 J/K/mol
99.08 K, Crystal of intercomponent compound 2, relaxation calorimeter, x2 = 0.804
  molar heat capacity at constant pressure: 9.32 ± 0.38 J/K/mol
100 K, Crystal of intercomponent compound 1, relaxation calorimetry + DSC, x2 = 0.81
  molar heat capacity at constant pressure: 9.14 ± 0.37 J/K/mol
100 K, Crystal of intercomponent compound 2, relaxation calorimetry + DSC, x2 = 0.804
  molar heat capacity at constant pressure: 9.44 ± 0.38 J/K/mol
103.16 K, Crystal of intercomponent compound 1, relaxation calorimetry, x2 = 0.81
  molar heat capacity at constant pressure: 9.52 ± 0.39 J/K/mol
103.16 K, Crystal of intercomponent compound 2, relaxation calorimeter, x2 = 0.804
  molar heat capacity at constant pressure: 9.83 ± 0.4 J/K/mol
103.18 K, Crystal of intercomponent compound 2, relaxation calorimeter, x2 = 0.804
  molar heat capacity at constant pressure: 9.87 ± 0.4 J/K/mol
107.24 K, Crystal of intercomponent compound 1, relaxation calorimetry, x2 = 0.81
  molar heat capacity at constant pressure: 10.04 ± 0.41 J/K/mol
107.25 K, Crystal of intercomponent compound 2, relaxation calorimeter, x2 = 0.804
  molar heat capacity at constant pressure: 10.37 ± 0.42 J/K/mol
107.26 K, Crystal of intercomponent compound 2, relaxation calorimeter, x2 = 0.804
  molar heat capacity at constant pressure: 10.4 ± 0.42 J/K/mol
110 K, Crystal of intercomponent compound 1, relaxation calorimetry + DSC, x2 = 0.81
  molar heat capacity at constant pressure: 10.39 ± 0.42 J/K/mol
110 K, Crystal of intercomponent compound 2, relaxation calorimetry + DSC, x2 = 0.804
  molar heat capacity at constant pressure: 10.73 ± 0.44 J/K/mol
111.29 K, Crystal of intercomponent compound 1, relaxation calorimetry, x2 = 0.81
  molar heat capacity at constant pressure: 10.53 ± 0.43 J/K/mol
111.29 K, Crystal of intercomponent compound 2, relaxation calorimeter, x2 = 0.804
  molar heat capacity at constant pressure: 10.88 ± 0.44 J/K/mol
111.31 K, Crystal of intercomponent compound 2, relaxation calorimeter, x2 = 0.804
  molar heat capacity at constant pressure: 10.88 ± 0.44 J/K/mol
115.39 K, Crystal of intercomponent compound 1, relaxation calorimetry, x2 = 0.81
  molar heat capacity at constant pressure: 11.05 ± 0.45 J/K/mol
115.4 K, Crystal of intercomponent compound 2, relaxation calorimeter, x2 = 0.804
  molar heat capacity at constant pressure: 11.39 ± 0.46 J/K/mol
115.41 K, Crystal of intercomponent compound 2, relaxation calorimeter, x2 = 0.804
  molar heat capacity at constant pressure: 11.41 ± 0.46 J/K/mol
119.47 K, Crystal of intercomponent compound 1, relaxation calorimetry, x2 = 0.81
  molar heat capacity at constant pressure: 11.55 ± 0.47 J/K/mol
119.47 K, Crystal of intercomponent compound 2, relaxation calorimeter, x2 = 0.804
  molar heat capacity at constant pressure: 11.87 ± 0.48 J/K/mol
119.49 K, Crystal of intercomponent compound 2, relaxation calorimeter, x2 = 0.804
  molar heat capacity at constant pressure: 11.92 ± 0.48 J/K/mol
120 K, Crystal of intercomponent compound 1, relaxation calorimetry + DSC, x2 = 0.81
  molar heat capacity at constant pressure: 11.56 ± 0.47 J/K/mol
120 K, Crystal of intercomponent compound 2, relaxation calorimetry + DSC, x2 = 0.804
  molar heat capacity at constant pressure: 11.93 ± 0.48 J/K/mol
123.51 K, Crystal of intercomponent compound 1, relaxation calorimetry, x2 = 0.81
  molar heat capacity at constant pressure: 12 ± 0.49 J/K/mol
123.51 K, Crystal of intercomponent compound 2, relaxation calorimeter, x2 = 0.804
  molar heat capacity at constant pressure: 12.35 ± 0.5 J/K/mol
123.53 K, Crystal of intercomponent compound 2, relaxation calorimeter, x2 = 0.804
  molar heat capacity at constant pressure: 12.4 ± 0.5 J/K/mol
127.61 K, Crystal of intercomponent compound 1, relaxation calorimetry, x2 = 0.81
  molar heat capacity at constant pressure: 12.47 ± 0.51 J/K/mol
